Reference: patent publication US5981748A, “Synthesis of optically pure compounds useful as GARFT inhibitors and their intermediates” (Agouron Pharmaceuticals, Inc., priority 1998, dated 1999)
pKi: −log10 of the molar value.

Biological target: catalytic domain of the human GARFT (Homo sapiens, UniProt P22102)
Assay: biochemical
Description: Reactions mixtures were prepared containing the catalytic domain of the human GARFT, 0-250 nM test compound, 20 μM glycinamide ribonucleotide (GAR), 10 or 20 μM N^10 -formyl-5,8-dideazafolate (FDDF), 50 mM HEPES-KOH (pH 7.5), and 50 mM KCl. The reaction was initiated with the addition of enzyme to a final concentration of 11 nM, followed by monitoring of the increase in absorbance at 294 nm at 20° C. (ε294 =18.9 mM^-1 cm^-1).
The GARFT inhibition constant (Ki) was determined from the dependence of the steady-state catalytic rate on the inhibitor and substrate concentration. […] The Michaelis constant for FDDF, Km, was determined independently by the dependence of the catalytic rate on the FDDF concentration. Data for both the Km and Ki determinations were fitted by non-linear methods to the Michaelis equation or to the Michaelis equation for competitive inhibition, as appropriate.

catalytic domain of the human GARFT, sequence (P22102 810-1010 limits assumed): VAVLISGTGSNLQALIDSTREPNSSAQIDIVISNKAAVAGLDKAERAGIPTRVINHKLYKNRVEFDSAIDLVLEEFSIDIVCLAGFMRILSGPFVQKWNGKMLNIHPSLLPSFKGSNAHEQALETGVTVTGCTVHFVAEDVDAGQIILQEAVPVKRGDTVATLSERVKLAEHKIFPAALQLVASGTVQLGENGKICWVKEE

Question: With `Nc1nc2c(c(=O)[nH]1)S[C@H](CCc1ccc(C(=O)N[C@@H](CCC(=O)O)C(=O)O)s1)CN2` [Compound 15, 2-(5-[2-(2-Amino-4-oxo-4,6,7,8-tetrahydro-3H-pyrimido[5,4-b][1,4]thiazin-6(R)-yl)-ethyl]-thiophene)-2-L-glutamic acid] as the compound, how does the pKi read?
Answer: 8.52
